Source: PMC2885673, “Interaction of triosephosphate isomerase from the cell surface of Staphylococcus aureus and α-(1→3)-mannooligosaccharides derived from glucuronoxylomannan of Cryptococcus neoformans” (Microbiology, 2009)

Experiments:
[1] = biological target: T1, triosephosphate isomerase (TPI) from S. aureus (Staphylococcus aureus, UniProt Q2G030); assay: SPR (Biacore […]), TPI immobilized, heterogeneous ligand-parallel reaction fit; format: binding; settings: HBS-EP pH 7.4, 150 mM NaCl, 3 mM EDTA; second site of a two-site fit (stronger site)
T1 construct: gene tpiA; native, purified from LiCl surface protein extract; 253 amino acids (homology model); amine-coupled to CM5 chip for SPR

[2] = biological target: T1, triosephosphate isomerase (TPI) from S. aureus; assay: coupled NADH / glycerol-3-phosphate dehydrogenase assay, A340; format: biochemical; settings: 0.45 mM DL-glyceraldehyde 3-phosphate; S. aureus surface protein extract per the assay description

T1 sequence (Q2G030 whole entry): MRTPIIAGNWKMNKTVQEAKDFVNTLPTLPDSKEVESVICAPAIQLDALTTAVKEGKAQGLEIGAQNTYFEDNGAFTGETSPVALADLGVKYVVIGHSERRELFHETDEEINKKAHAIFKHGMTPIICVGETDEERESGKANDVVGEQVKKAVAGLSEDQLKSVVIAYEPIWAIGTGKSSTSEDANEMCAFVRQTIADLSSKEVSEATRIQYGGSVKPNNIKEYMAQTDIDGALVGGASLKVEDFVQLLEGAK

| SMILES | Heterogeneous ligand-parallel reaction / Kd2 [1] [µM] | inhibition of TPI activity at 100 μM [2] |
| --- | --- | --- |
| OC[C@H]1O[C@H](O[C@@H]2[C@H](O)[C@@H](O[C@@H]3[C@H](O)[C@@H](O[C@@H]4[C@H](O)[C@@H](O[C@H]5[C@H](O)[C@@H](CO)OC(O)[C@H]5O)O[C@H](CO)[C@H]4O)O[C@H](CO)[C@H]3O)O[C@H](CO)[C@H]2O)[C@@H](O)[C@@H](O)[C@@H]1O (stereo partly shown) [M5, mannopentaose] | 18.6 | dose-dependent inhibition was observed with mannotriose, mannotetraose and mannopentaose |
| OC[C@H]1O[C@H](O[C@H]2[C@H](O)[C@@H](CO)OC(O)[C@H]2O)[C@@H](O)[C@@H](O)[C@@H]1O (stereo partly shown) [M2, mannobiose] | 5.37 |  |
| OC[C@H]1O[C@H](O[C@@H]2[C@H](O)[C@@H](O[C@@H]3[C@H](O)[C@@H](O[C@H]4[C@H](O)[C@@H](CO)OC(O)[C@H]4O)O[C@H](CO)[C@H]3O)O[C@H](CO)[C@H]2O)[C@@H](O)[C@@H](O)[C@@H]1O (stereo partly shown) [M4, mannotetraose] | 0.0146 | dose-dependent inhibition was observed with mannotriose, mannotetraose and mannopentaose |
| OC[C@H]1O[C@H](O[C@@H]2[C@H](O)[C@@H](O[C@H]3[C@H](O)[C@@H](CO)OC(O)[C@H]3O)O[C@H](CO)[C@H]2O)[C@@H](O)[C@@H](O)[C@@H]1O (stereo partly shown) [M3, mannotriose] | 124 | dose-dependent inhibition was observed with mannotriose, mannotetraose and mannopentaose |
